Source: patent US20240254119A1 (THIRD HARMONIC BIO, INC., priority 2022, published 2024)

Tests used:
[1] = system: KIT phosphorylation in M-07e cells; assay: Cell-based KIT phosphorylation in M-07e cells by pKIT ELISA; design: species or system human; conditions: SCF stimulation
Summary of the method: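 Serum-starved M-07e cells (1 × 10^6/mL, overnight) were treated with compounds (8-point 3-fold series from 1 uM) for 2 h at 37 °C, then stimulated with 100 ng/mL SCF for 5 min. Lysate phospho-KIT was captured on anti-phospho-CD117 plates, detected with anti-pY-HRP, and read at 450 nm against a pc-KIT standard curve.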

MDR1 (MDR1-MDCKII cells) = target: T1, MDR1 (MDR1-MDCKII cells) (Homo sapiens, UniProt P08183); assay: Permeability in MDR1-MDCKII cells; format: in vitro ADME; conditions: for MDCKII-MDR1: Papp A-B: MDCKII-MDR1, apical to basolateral
T1 construct: host or cells: MDCKII (canine kidney) cells
Protocol: Exemplary compounds were tested for cell permeability in Caco-2, MDCKII-MDR1 and MDCKII-BCRP cell lines with efflux transporter engagement inferred from the efflux ratios determined. Procedures and results are described below. […] This feature of certain compounds is in part due to efflux transporter engagement. See, for instance, exemplary such compounds included in data tables below.
MDR1-MDCKII cells (obtained from Piet Borst at the Netherlands Cancer Institute) were seeded onto […] membranes (PET) in 96-well insert systems at 2.5×10^5 cells/mL until to 4-7 days for confluent cell monolayer formation.
Test compounds were diluted with the transport buffer (HBSS with 10 mM Hepes, pH7.4) from DMSO stock solution to a concentration of 2.00 μM (DMSO<1%) and applied to the apical or basolateral side of the cell monolayer. Permeation of the test compounds from A to B direction or B to A direction was determined in duplicate. Digoxin was tested at 10.0 μM from A to B direction or B to A direction as well, while nadolol and metoprolol were tested at […] in A to B direction in duplicate. The plate was incubated for 2.5 hours in CO2 incubator at 37±1° C., with 5% CO2 at saturated humidity without shaking. In addition, the efflux ratio of each compound was also determined. Test and reference compounds were quantified by LC-MS/MS analysis based on the peak area ratio of analyte/IS.
After transport assay, Lucifer yellow rejection assay are applied to determine the cell monolayer integrity. Buffers are removed from both apical and basolateral chambers, followed by the addition of 75 μL of 100 μM lucifer yellow in transport buffer and 250 μL transport buffer in apical and basolateral chambers, respectively. The plate is incubated for 30 minutes at 37° C. with 5% CO2 and saturated humidity without shaking. After 30 minutes incubation, 20 μL of lucifer yellow samples are taken from the apical sides, followed by the addition of 60 μL of Transport Buffer. And then 80 μL of lucifer yellow samples are taken from the basolateral sides. The relative fluorescence unit (RFU) of lucifer yellow is measured at 425/528 nm (excitation/emission) with an Envision plate reader.
The apparent permeability coefficient Papp (cm/s) was calculated using the equation: […]
Where dCr/dt is the cumulative concentration of compound in the receiver chamber as a function of time (μM/s); Vr is the solution volume in the receiver chamber (0.075 mL on the apical side, 0.25 mL on the basolateral side); A is the surface area for the transport, i.e. 0.0804 cm^2 for the area of the monolayer; C0 is the initial concentration in the donor chamber (μM). The efflux ratio was calculated using the equation: […]
Where Vd is the volume in the donor chambers (0.075 mL on the apical side, 0.25 mL on the basolateral side); Cd and Cr are the final concentrations of transport compound in donor and receiver chambers, respectively.

T1 sequence (P08183 whole entry): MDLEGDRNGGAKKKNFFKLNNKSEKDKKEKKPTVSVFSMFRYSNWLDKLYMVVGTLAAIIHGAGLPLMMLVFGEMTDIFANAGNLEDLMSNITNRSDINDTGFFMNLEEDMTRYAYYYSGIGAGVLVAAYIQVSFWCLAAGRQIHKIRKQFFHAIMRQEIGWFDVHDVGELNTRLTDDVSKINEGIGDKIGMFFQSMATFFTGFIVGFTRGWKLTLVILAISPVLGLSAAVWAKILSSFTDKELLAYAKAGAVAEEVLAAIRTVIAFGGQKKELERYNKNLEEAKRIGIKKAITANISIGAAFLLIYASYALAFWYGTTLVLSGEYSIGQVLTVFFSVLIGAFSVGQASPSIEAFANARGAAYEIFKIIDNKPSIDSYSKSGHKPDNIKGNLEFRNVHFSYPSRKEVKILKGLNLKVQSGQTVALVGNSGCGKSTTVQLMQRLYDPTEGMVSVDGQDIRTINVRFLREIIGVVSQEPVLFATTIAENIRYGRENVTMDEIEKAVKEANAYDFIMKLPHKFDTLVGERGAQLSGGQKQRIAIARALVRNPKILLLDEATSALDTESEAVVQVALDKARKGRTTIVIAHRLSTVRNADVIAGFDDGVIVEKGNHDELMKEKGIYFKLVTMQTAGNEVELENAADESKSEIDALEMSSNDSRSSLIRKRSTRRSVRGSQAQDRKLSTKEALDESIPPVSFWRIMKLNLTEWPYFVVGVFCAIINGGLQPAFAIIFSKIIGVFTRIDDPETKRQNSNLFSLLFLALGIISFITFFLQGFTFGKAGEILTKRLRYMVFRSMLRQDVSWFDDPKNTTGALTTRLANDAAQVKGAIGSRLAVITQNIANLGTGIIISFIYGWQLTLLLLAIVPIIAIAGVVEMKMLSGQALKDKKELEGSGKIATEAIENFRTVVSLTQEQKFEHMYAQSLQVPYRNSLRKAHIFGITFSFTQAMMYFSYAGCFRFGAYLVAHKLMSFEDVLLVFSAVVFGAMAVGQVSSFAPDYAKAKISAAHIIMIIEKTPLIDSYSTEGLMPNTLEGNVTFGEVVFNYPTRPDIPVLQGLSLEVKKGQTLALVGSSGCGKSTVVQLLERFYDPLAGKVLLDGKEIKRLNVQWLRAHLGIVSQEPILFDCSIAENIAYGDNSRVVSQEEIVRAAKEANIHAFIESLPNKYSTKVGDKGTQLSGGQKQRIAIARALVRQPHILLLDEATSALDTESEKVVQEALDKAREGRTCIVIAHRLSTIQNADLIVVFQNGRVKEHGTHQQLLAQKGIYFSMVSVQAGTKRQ

Structure (SMILES) | IC50 [1] [nM] | MDCKII-MDR1: Efflux Ratio (MDR1 (MDR1-MDCKII cells)) | MDCKII-MDR1: Papp A-B (MDR1 (MDR1-MDCKII cells))
Cc1ccc(-c2noc([C@H]3CC(F)(F)CN3)n2)cc1NC(=O)c1cnc2ccccn12 [Compound I-359] | 50 to 500 | 0.81 | 21.4 10^−6 cm/s
Cc1ccc(-c2noc(CC(O)C(F)F)n2)cc1NC(=O)c1cnc2ccccn12 (stereo not drawn) [Compound I-114] | ≤ 50 | 3.67 | 7.8 10^−6 cm/s
CCCS(=O)(=O)N1CC(c2nc(-c3ccc(Cl)c(NC(=O)c4cnc5ccccn45)c3)no2)C1 [Compound I-220] | 50 to 500 | 0.71 | 16.3 10^−6 cm/s
Cc1nc(-c2ccc(Cl)c(NC(=O)c3cnc4ccccn34)c2)no1 [Compound I-172] | 500 to 5000 | 0.46 | 22.7 10^−6 cm/s
Cc1ccc(-c2noc(CCO)n2)cc1NC(=O)c1cnc2ccccn12 [Compound I-306] | ≤ 50 | 2.88 | 14.5 10^−6 cm/s
O=C(Nc1cc(-c2noc([C@H]3C[C@@H]3F)n2)ccc1Cl)c1cnc2ccccn12 [Compound I-341] | 50 to 500 | 0.82 | 17.7 10^−6 cm/s
COC(=O)N1CC(c2nc(-c3ccc(C(F)F)c(NC(=O)c4cnc5ccccn45)c3)no2)C1 [Compound I-225] | ≤ 50 | 1.1 | 15.9 10^−6 cm/s
Cc1ccc(-c2noc(C3COC3)n2)cc1NC(=O)c1cnc2ccccn12 [Compound I-138] | ≤ 50 | 1.01 | 22 10^−6 cm/s
Cc1ccc(-c2noc([C@H]3C[C@@H]3F)n2)cc1NC(=O)c1cnc2cc(OC(C)C)ccn12 [Compound I-88] | ≤ 50 | 0.86 | 3.92 10^−6 cm/s
Cc1ccc(-c2noc([C@H](C)O)n2)cc1NC(=O)c1cnc2ccccn12 [Compound I-271] | ≤ 50 | 1.36 | 18.5 10^−6 cm/s
Cc1ccc(-c2noc(CC(C)(C)O)n2)cc1NC(=O)c1cnc2ccccn12 [Compound I-336] | ≤ 50 | 1.85 | 15.4 10^−6 cm/s
Cc1ccc(-c2noc([C@H]3C[C@@H]3F)n2)cc1NC(=O)c1cnc2cc(OC(F)(F)F)ccn12 [Compound I-87] | ≤ 50 | 0.74 | 4.58 10^−6 cm/s
Cc1ccc(-c2noc([C@H]3C[C@@H]3F)n2)cc1NC(=O)c1cnc2ccc(F)cn12 [Compound I-288] | 50 to 500 | 0.51 | 20.6 10^−6 cm/s
COCCOCc1ccn2c(C(=O)Nc3cc(-c4noc([C@H]5C[C@@H]5F)n4)ccc3C)cnc2c1 [Compound I-84] | ≤ 50 | 1.78 | 12.1 10^−6 cm/s
Cc1ccc(-c2noc(C3CC(F)C3)n2)cc1NC(=O)c1cnc2ccccn12 (stereo not drawn) [Compound I-381] | ≤ 50 | 0.55 | 5.95 10^−6 cm/s
COC(=O)N1CC(c2nc(-c3ccc(C)c(NC(=O)c4cnn5ccc(Br)cc45)c3)no2)C1 [Compound I-280] | ≤ 50 | 1.19 | 11.8 10^−6 cm/s
